# Laboratory results: patent US9024013B2, “Method for purifying rocuronium bromide” (Zhejiang Huahai Pharmaceutical Co., Ltd, priority 2011, dated 2015)
# Assay: Storage stability at room temperature of rocuronium bromide samples (related substances by HPLC)
# Assay type: physicochemical
# Conditions: for Impurity A, substances involved (HPLC) / Impurity C, substances involved (HPLC) / Total impurities, substances involved (HPLC) / Single unknown impurity, substances involved (HPLC): room temperature storage
smiles,measurement,setting,value
C=CC[N+]1([C@H]2C[C@H]3[C@@H]4CC[C@H]5C[C@H](O)[C@@H](N6CCOCC6)C[C@]5(C)[C@H]4CC[C@]3(C)[C@H]2OC(C)=O)CCCC1 [rocuronium bromide],hydrolyzed impurities after storage (versus USP33 limits),"moisture 4% or more, storage period of about 10 days at room temperature",out of limits
same,levels of impurities after storage,"moisture controlled to about 0.5%, storage period of one month at room temperature",substantially unchanged
same,level of impurities after storage,"purified by the method of the invention, moisture 4% or less, preferably 0.5% or less, one month at room temperature",substantially unchanged
same,"Impurity A, substances involved (HPLC)","sample moisture 0.5%, Day 0",0.02%
same,"Impurity C, substances involved (HPLC)","sample moisture 0.5%, Day 0",0.06%
same,"Total impurities, substances involved (HPLC)","sample moisture 0.5%, Day 0",0.08%
same,"Impurity A, substances involved (HPLC)","sample moisture 0.5%, Day 10",0.02%
same,"Impurity C, substances involved (HPLC)","sample moisture 0.5%, Day 10",0.06%
same,"Total impurities, substances involved (HPLC)","sample moisture 0.5%, Day 10",0.08%
same,"Impurity A, substances involved (HPLC)","sample moisture 0.5%, Day 20",0.03%
same,"Impurity C, substances involved (HPLC)","sample moisture 0.5%, Day 20",0.06%
same,"Total impurities, substances involved (HPLC)","sample moisture 0.5%, Day 20",0.09%
same,"Impurity A, substances involved (HPLC)","sample moisture 0.5%, Day 30",0.03%
same,"Impurity C, substances involved (HPLC)","sample moisture 0.5%, Day 30",0.06%
same,"Total impurities, substances involved (HPLC)","sample moisture 0.5%, Day 30",0.09%
same,"Impurity A, substances involved (HPLC)","sample moisture 4.5%, Day 0",0.02%
same,"Impurity C, substances involved (HPLC)","sample moisture 4.5%, Day 0",0.06%
same,"Total impurities, substances involved (HPLC)","sample moisture 4.5%, Day 0",0.08%
same,"Impurity A, substances involved (HPLC)","sample moisture 4.5%, Day 10",0.25%
same,"Impurity C, substances involved (HPLC)","sample moisture 4.5%, Day 10",0.36%
same,"Single unknown impurity, substances involved (HPLC)","sample moisture 4.5%, Day 10",0.12%
same,"Total impurities, substances involved (HPLC)","sample moisture 4.5%, Day 10",0.73%
same,"Impurity A, substances involved (HPLC)","sample moisture 4.5%, Day 20",0.30%
same,"Impurity C, substances involved (HPLC)","sample moisture 4.5%, Day 20",0.40%
same,"Single unknown impurity, substances involved (HPLC)","sample moisture 4.5%, Day 20",0.20%
same,"Total impurities, substances involved (HPLC)","sample moisture 4.5%, Day 20",0.90%
same,"Impurity A, substances involved (HPLC)","sample moisture 4.5%, Day 30",0.35%
same,"Impurity C, substances involved (HPLC)","sample moisture 4.5%, Day 30",0.50%
same,"Single unknown impurity, substances involved (HPLC)","sample moisture 4.5%, Day 30",0.20%
same,"Total impurities, substances involved (HPLC)","sample moisture 4.5%, Day 30",1.05%
